The values below come from patent publication US12708630B2, “Combined therapy of 4′-thio-5-aza-2′-deoxycytidine and Venetoclax” (PINOTBIO, INC., priority 2021, dated 2026).

One series relates to NCI-H522 (NSCLC). As to the kind of experiment: NCI-H522 (NSCLC) xenograft model. The format is in vivo. The note with it: nude mouse, 2 mg/kg, (6) cycles. On the procedure: The efficacy of Aza-T-dCyd was confirmed by tumor growth curves after administration of Aza-T-dCyd in various solid cancer xenograft models. Aza-T-dCyd at a dose of 1~2 mg/kg was administered repeatedly for 2~6 cycles in QD×5, showing excellent anti-cancer effects (evidenced by test/control (T/C) value≤40%).

Another series has as its system Molm13 Xenograft model. Kind of series: Molm13 Xenograft model. The format is in vivo. Particulars: oral 0.2-1.5 mg/kg.
A further series has as its system DMS114. As to the kind of experiment: drug activity profiling cytotoxicity. Particulars: Homo sapiens, DMS-114; DMS114 cell line, Lung (SCLC); read-out: Aza-T-dCyd IC50. The format is cell-based. The essentials:
(§1)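 Each line's cytotoxic response to Aza-T-dCyd was recorded within a 200-line profiling study designed to find predictive markers.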

In the next series the test system is SW403. As to the kind of experiment: drug activity profiling cytotoxicity. The format is cell-based. Particulars: Homo sapiens, SW-403; SW403 cell line, Colon; read-out: Aza-T-dCyd IC50. The procedure, abridged: as §1
The subject of the next series is A204. As to the kind of experiment: drug activity profiling cytotoxicity. The series is classed as cell-based. The note with it: Homo sapiens; A204 cell line, Sarcoma; read-out: Aza-T-dCyd IC50. The essentials:
as §1

For the next series, the system named is MC116. As to the kind of experiment: drug activity profiling cytotoxicity. The series is classed as cell-based. The note with it: Homo sapiens; MC116 cell line, B-cell lymphoma; read-out: Aza-T-dCyd IC50. The essentials:
as §1

Another series has as its system SK-N-AS. As to the kind of experiment: drug activity profiling cytotoxicity. The format is cell-based. The note with it: Homo sapiens; SK-N-AS cell line, CNS (Neuroblastoma); read-out: Aza-T-dCyd IC50. The procedure, abridged:
as §1

A further series concerns RPMI 8226. Kind of series: drug activity profiling cytotoxicity. The format is cell-based. Particulars: Homo sapiens; RPMI 8226 cell line, B-cell myeloma; read-out: Aza-T-dCyd IC50. The procedure, abridged: as §1
The subject of the next series is C32. As to the kind of experiment: drug activity profiling cytotoxicity. The format is cell-based. Particulars: Homo sapiens; C32 cell line, Skin (Melanoma); read-out: Aza-T-dCyd IC50. The essentials: as §1
Another series has as its system BFTC-905. Kind of series: drug activity profiling cytotoxicity. The note with it: Homo sapiens; BFTC-905 cell line, Bladder; read-out: Aza-T-dCyd IC50. The format is cell-based. The essentials:
as §1

Another series deals with JeKo-1. Kind of series: drug activity profiling cytotoxicity. The series is classed as cell-based. Particulars: Homo sapiens; JeKo-1 cell line, B-cell lymphoma; read-out: Aza-T-dCyd IC50. The procedure, abridged:
as §1

The subject of a further series is SU-DHL-10. Kind of series: drug activity profiling cytotoxicity. The series is classed as cell-based. Particulars: Homo sapiens, SU-DHL10; SU-DHL-10 cell line, B-cell lymphoma; read-out: Aza-T-dCyd IC50. The procedure, abridged:
as §1

In a further series the test system is SW480. As to the kind of experiment: drug activity profiling cytotoxicity. The format is cell-based. The note with it: Homo sapiens; SW480 cell line, Colon; read-out: Aza-T-dCyd IC50. The essentials:
as §1

The test system of another series is U-118 MG. Kind of series: drug activity profiling cytotoxicity. The series is classed as cell-based. The note with it: Homo sapiens; U-118 MG cell line, CNS (Glioma); read-out: Aza-T-dCyd IC50. The essentials:
as §1

The next series concerns PA-1. Kind of series: drug activity profiling cytotoxicity. The format is cell-based. The note with it: Homo sapiens; PA-1 cell line, Female GU (Ovary); read-out: Aza-T-dCyd IC50. The procedure, abridged: as §1
A further series deals with HCT-15. Kind of series: drug activity profiling cytotoxicity. The format is cell-based. Particulars: Homo sapiens; HCT-15 cell line, Colon; read-out: Aza-T-dCyd IC50. The procedure, abridged: as §1
Another series has as its system NCI-H69. As to the kind of experiment: drug activity profiling cytotoxicity. The series is classed as cell-based. Particulars: Homo sapiens; NCI-H69 cell line, Lung (SCLC); read-out: Aza-T-dCyd IC50. The essentials:
as §1

The next series has as its system D283 Med. As to the kind of experiment: drug activity profiling cytotoxicity. The series is classed as cell-based. Particulars: Homo sapiens; D283 Med cell line, CNS (Medulloblastoma); read-out: Aza-T-dCyd IC50. The procedure, abridged:
as §1

For another series, the target named is DNMT3B (Homo sapiens, UniProt Q9UBC3). As to the kind of experiment: DNMT3B expression in HL-60 xenograft tumor samples. The format is in vivo, mice. On the set-up: tumor samples were collected on day 11 to determine the expression of DNMT1, DNMT3A, and DNMT3B; from tissue; host or cells: HL-60 xenograft tumour samples (mouse host). The note with it: 2 mg/kg NTX-301 or 0.75 mg/kg Decitabine intraperitoneally, day 11. On the procedure: (§2) As the efficacy of DNMT1 inhibitors correlates with their selective profile for targeting DNMT1 and the de novo methyltransferases DNMT3A and DNMT3B, we confirmed the expression of DNMT1, DNMT3A, and DNMT3B in the Aza-T-dCyd and Decitabine treated groups in this xenograft model (FIG. 27).
(§3) In the HL-60 xenograft mice model, 2 mg/kg of NTX-301 (Aza-T-dCyd) or 0.75 mg/kg of Decitabine were administered intraperitoneally, and then tumor samples were collected on day 11 to determine the expression of DNMT1, DNMT3A, and DNMT3B. […] On the other hand, the expression levels of DNMT3A and DNMT3B were different in the Aza-T-dCyd and Decitabine treatment groups.

In another series the test system is cytidine deaminase. Kind of series: Degradation by cytidine deaminase. The source says: Decitabine/Azacytidine is susceptible to metabolism by cytidine deaminases in the body, resulting in an unstable PK profile that limits its efficacy.
The target in the next series is DNMT1 (Homo sapiens, UniProt P26358). Kind of series: DNMT1 expression in HL-60 xenograft tumor samples. The series is classed as in vivo, mice. On the set-up: tumor samples were collected on day 11 to determine the expression of DNMT1, DNMT3A, and DNMT3B; from tissue; host or cells: HL-60 xenograft tumour samples (mouse host). The note with it: 2 mg/kg NTX-301 or 0.75 mg/kg Decitabine intraperitoneally, day 11. As to the method: as §2, §3
Sequence of DNMT1 (P26358 whole entry): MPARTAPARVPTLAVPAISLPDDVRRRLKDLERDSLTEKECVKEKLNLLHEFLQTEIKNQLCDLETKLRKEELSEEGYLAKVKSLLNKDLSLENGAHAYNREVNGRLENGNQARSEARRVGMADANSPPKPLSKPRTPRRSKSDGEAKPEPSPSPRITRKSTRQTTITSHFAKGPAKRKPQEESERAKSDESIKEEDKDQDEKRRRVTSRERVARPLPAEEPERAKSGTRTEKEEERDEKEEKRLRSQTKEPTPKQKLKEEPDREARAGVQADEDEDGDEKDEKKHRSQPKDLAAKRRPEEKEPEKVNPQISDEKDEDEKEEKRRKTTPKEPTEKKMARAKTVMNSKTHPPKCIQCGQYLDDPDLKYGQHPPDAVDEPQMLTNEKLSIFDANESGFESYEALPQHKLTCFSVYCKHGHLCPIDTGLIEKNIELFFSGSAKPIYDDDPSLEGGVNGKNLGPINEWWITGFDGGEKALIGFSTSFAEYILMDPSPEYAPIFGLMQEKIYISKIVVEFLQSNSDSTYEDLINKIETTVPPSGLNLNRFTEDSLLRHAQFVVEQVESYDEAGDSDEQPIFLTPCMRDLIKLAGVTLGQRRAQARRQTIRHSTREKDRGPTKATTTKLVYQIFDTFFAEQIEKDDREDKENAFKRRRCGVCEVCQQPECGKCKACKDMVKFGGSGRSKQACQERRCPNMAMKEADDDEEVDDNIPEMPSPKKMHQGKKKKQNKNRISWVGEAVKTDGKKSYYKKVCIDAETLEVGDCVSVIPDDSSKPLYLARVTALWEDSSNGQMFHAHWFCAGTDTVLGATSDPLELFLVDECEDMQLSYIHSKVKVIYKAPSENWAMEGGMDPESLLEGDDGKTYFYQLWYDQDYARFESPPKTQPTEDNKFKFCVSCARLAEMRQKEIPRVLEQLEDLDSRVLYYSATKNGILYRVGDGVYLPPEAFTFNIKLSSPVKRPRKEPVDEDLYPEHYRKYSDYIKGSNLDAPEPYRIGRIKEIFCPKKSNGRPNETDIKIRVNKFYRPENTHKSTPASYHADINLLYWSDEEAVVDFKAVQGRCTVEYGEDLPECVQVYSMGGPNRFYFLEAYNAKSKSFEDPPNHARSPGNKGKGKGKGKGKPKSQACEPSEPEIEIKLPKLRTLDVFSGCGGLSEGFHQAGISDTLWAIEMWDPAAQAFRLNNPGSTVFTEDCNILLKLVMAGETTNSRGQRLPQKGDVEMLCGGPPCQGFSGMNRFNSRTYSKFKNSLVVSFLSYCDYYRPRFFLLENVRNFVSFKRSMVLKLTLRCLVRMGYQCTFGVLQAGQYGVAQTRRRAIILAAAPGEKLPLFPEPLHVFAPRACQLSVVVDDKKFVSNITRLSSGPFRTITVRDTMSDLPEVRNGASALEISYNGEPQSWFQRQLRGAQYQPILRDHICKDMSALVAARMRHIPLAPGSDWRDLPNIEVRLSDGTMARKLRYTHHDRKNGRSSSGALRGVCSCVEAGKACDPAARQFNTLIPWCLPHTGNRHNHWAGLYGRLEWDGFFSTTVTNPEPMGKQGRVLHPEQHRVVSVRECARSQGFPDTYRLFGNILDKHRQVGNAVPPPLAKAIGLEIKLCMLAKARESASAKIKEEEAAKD

The test system of the next series is BL0382PD PDX (bladder). The format is in vivo, Mouse. Particulars: NSG mouse, 1 mg/kg, (4) cycles. The source says: The efficacy of Aza-T-dCyd was confirmed by tumor growth curves after administration of Aza-T-dCyd in various solid cancer xenograft models. […]

Some results are limits rather than exact numbers.

For orientation: IC50 means the midpoint of a concentration-inhibition curve. Consider `Nc1ncn([C@H]2CC(O)[C@@H](CO)S2)c(=O)n1` (some centres unmarked) [Aza-T-dCyd, 4′-thio-5-aza-2′-deoxycytidine], for which the entries for the “Optimal T/C (%) (test/control)” value with NCI-H522 (NSCLC) and in the series with BL0382PD PDX (bladder) were 31% and 23%, respectively. For the same compound, the anti-cancer effect result with Molm13 Xenograft model was “potent anti-cancer effect in a dose-dependent manner”. Also, the “toxicity signals (body weight changes)” value with Molm13 Xenograft model was “without any toxicity signals”. The concentration for half-maximal inhibition (IC50) in the series on DMS114 is 2200 nM; with SW403, 619 nM; with A204, 157 nM; in the series with MC116 it was 29.7 nM; with SK-N-AS, 1170 nM; with RPMI 8226, 3270 nM. For the same compound, the IC50 in the series on C32 was more than 10000 nM; in the series with BFTC-905, 119 nM; with JeKo-1 it was 38.5 nM; with SU-DHL-10 it was 36.6 nM; in the series with SW480, 1580 nM; with U-118 MG, more than 10000 nM. Also, the half-maximal inhibitory concentration (IC50) was 39.2 nM in the series on PA-1, 1020 nM in the series with HCT-15, more than 10000 nM in the series on NCI-H69 and 68.8 nM with D283 Med. Also, at DNMT3B, the “DNMT3B expression level in tumor samples” value is given as “significantly reduced”. For the same compound, in the series with cytidine deaminase, the “rate of degradation by cytidine deaminase” value is “slower rate of degradation by cytidine deaminase”. Further, on DNMT1, the “DNMT1 expression in tumor samples” value was “significantly reduced”.
